Data published in the NIST ThermoML archive (doi:10.1021/je1013476).

Assays:
[1] = xn = mol fraction of the nth substance listed; conditions: 101 kPa, Liquid; for viscosity: Capillary tube (Ostwald / Ubbelohde) method; for mass density: Vibrating tube method
[2] = excess molar enthalpy (molar enthalpy of mixing); xn = mol fraction of the nth substance listed; conditions: 303.15 K, 101 kPa, Liquid, Calvet calorimetry

CCOC(=O)OCC [diethyl carbonate] + CCCCCO
[1]
Conditions | mass density [kg/m3] | viscosity [mPa·s]
288.15 K, x1 = 0.05026 | 826.9 | 3.879
288.15 K, x1 = 0.106 | 836.4 | 3.215
288.15 K, x1 = 0.1881 | 850.28 | 2.529
288.15 K, x1 = 0.2879 | 866.92 | 1.972
288.15 K, x1 = 0.396 | 884.69 | 1.595
288.15 K, x1 = 0.4905 | 900.03 | 1.355
288.15 K, x1 = 0.5917 | 916.28 | 1.182
288.15 K, x1 = 0.7104 | 935.09 | 1.03
288.15 K, x1 = 0.8067 | 950.23 | 0.948
288.15 K, x1 = 0.896 | 964.17 | 0.898
288.15 K, x1 = 0.9607 | 974.25 | 0.871
293.15 K, x1 = 0.04854 | 822.8 | 3.391
293.15 K, x1 = 0.0572 | 824.25 | 3.292
293.15 K, x1 = 0.1071 | 832.6 | 2.796
293.15 K, x1 = 0.1988 | 847.85 | 2.138
293.15 K, x1 = 0.29 | 862.87 | 1.725
293.15 K, x1 = 0.398 | 880.41 | 1.402
293.15 K, x1 = 0.4939 | 895.79 | 1.202
293.15 K, x1 = 0.5998 | 912.55 | 1.049
293.15 K, x1 = 0.6968 | 927.7 | 0.947
293.15 K, x1 = 0.8009 | 943.91 | 0.869
293.15 K, x1 = 0.8902 | 957.76 | 0.826
293.15 K, x1 = 0.9604 | 968.66 | 0.808
303.15 K, x1 = 0.06248 | 817.46 | 2.453
303.15 K, x1 = 0.09976 | 823.53 | 2.195
303.15 K, x1 = 0.2017 | 839.99 | 1.686
303.15 K, x1 = 0.2898 | 854.09 | 1.395
303.15 K, x1 = 0.3969 | 871 | 1.159
303.15 K, x1 = 0.4922 | 885.91 | 1.013
303.15 K, x1 = 0.5941 | 901.64 | 0.893
303.15 K, x1 = 0.6987 | 917.65 | 0.808
303.15 K, x1 = 0.8039 | 933.63 | 0.75
303.15 K, x1 = 0.8997 | 948.13 | 0.715
303.15 K, x1 = 0.9608 | 957.42 | 0.703
313.15 K, x1 = 0.05411 | 808.37 | 1.951
313.15 K, x1 = 0.1042 | 816.28 | 1.705
313.15 K, x1 = 0.1939 | 830.39 | 1.373
313.15 K, x1 = 0.29 | 845.34 | 1.139
313.15 K, x1 = 0.406 | 863.19 | 0.95
313.15 K, x1 = 0.4965 | 876.96 | 0.847
313.15 K, x1 = 0.5957 | 891.9 | 0.763
313.15 K, x1 = 0.7474 | 914.56 | 0.675
313.15 K, x1 = 0.803 | 922.81 | 0.653
313.15 K, x1 = 0.8997 | 937.15 | 0.628
313.15 K, x1 = 0.9582 | 945.86 | 0.62

[2]
Conditions | excess molar enthalpy [kcal/mol]
x1 = 0.04842 | 0.0916
x1 = 0.085 | 0.156
x1 = 0.1521 | 0.251
x1 = 0.2122 | 0.326
x1 = 0.263 | 0.373
x1 = 0.3154 | 0.418
x1 = 0.3592 | 0.441
x1 = 0.4399 | 0.477
x1 = 0.4581 | 0.478
x1 = 0.5444 | 0.491
x1 = 0.64 | 0.47
x1 = 0.6925 | 0.435
x1 = 0.7415 | 0.407
x1 = 0.7993 | 0.357
x1 = 0.8519 | 0.291
x1 = 0.9139 | 0.191
